Assay results taken from PMC2698029 (Journal of medicinal chemistry, 2009).
Counter-ions that a name gives are not always drawn. Marks after values point to notes of the source that are not given here.

Key:
[1] = test system: Plasmodium berghei, ANKA strain; settings: cited from earlier work; for Average survival time (not prolonged beyond day): single oral dose of 30 mg/kg, summary of Table 1
[2] = test system: Plasmodium berghei, ANKA strain; assay: Single oral dose antimalarial efficacy in P. berghei-infected mice; assay type: in vivo, C57BL/6J male mice; settings: single oral dose 144 mg/kg
[3] = Thermal stability in the solid state; assay type: physicochemical; settings: 60 °C
[4] = Hydrolytic stability in DMSO/water; assay type: physicochemical; settings: room temperature, 80/20 DMSO/water at pH 7.4
[5] = test system: WT-MEF Noncancerous mouse embryonic fibroblasts; assay: Cytotoxicity, SRB assay, WT-MEF noncancerous fibroblasts; assay type: cell-based; settings: Fibroblast, 72 h, read-out: IC50 Values (μM)
[6] = single oral dose of 30 mg/kg (printed in the 1 × 72 column)

SMILES | Average Survival (days) After Infection [1, 6] | Average survival time (not prolonged beyond day) [1] | Parasitemia at day 30 ([2]; 2 of the 5 mice, appeared sick) | Time stable in the solid state [3] | Time stable in solution [4] | IC50 [5] | Adverse effects ([2]; malaria-infected mice) | Stability in the solid state for one week ([3]; one week) | % Suppression of Parasitemia (on day 3 post infection) [1, 6]
C[C@H]1[C@H](OC(=O)CCC(=O)[O-])O[C@@H]2O[C@@]3(C)CC[C@H]4[C@H](C)CC[C@@H]1[C@@]24OO3.[Na+] [Dimer 1c, sodium artesunate] | 7.6 ^b days | ≤ 11 days | – | – | – | – | – | – | –
C[C@H]1[C@@H](CC(C[C@H]2O[C@@H]3C[C@]4(C)CC[C@H]5[C@H](C)CC[C@@H]([C@H]2C)[C@@]35OO4)CS(=O)(=O)c2ccc(CO)cc2)O[C@@H]2C[C@]3(C)CC[C@H]4[C@H](C)CC[C@@H]1[C@@]24OO3 (some centres unmarked) [Dimer 4b, dimeric sulfone benzylic alcohol] | – | – | 7–9% | ≥ 24 h | at least 12 hours | > 50 µM | – | – | –
C[C@H]1[C@@H](CC(C[C@H]2O[C@@H]3C[C@]4(C)CC[C@H]5[C@H](C)CC[C@@H]([C@H]2C)[C@@]35OO4)CS(=O)(=O)c2ccc(COC(=O)N(C)C)cc2)O[C@@H]2C[C@]3(C)CC[C@H]4[C@H](C)CC[C@@H]1[C@@]24OO3 [Dimer 4c, dimeric sulfone benzylic dimethyl carbamate] | – | – | – | ≥ 24 h | at least 12 hours | > 50 µM | no adverse effects | stable | –
CC(C)(N)CNC(=O)C[C@H]1CC[C@]2(CC1)OO[C@]1(O2)C2CC3CC(C2)CC1C3 [Dimer 7, OZ277 maleate] | 10.7 ^b days | ≤ 11 days | – | – | – | – | – | – | 99.95 ^b %
